One substance from patent US6429291B1, “Hyaluronan receptor protein” (priority 1994, dated 2002) can be followed below.

For assay [1], the system named is C3 cells. Kind of assay: Experimental metastasis assay of treated C3 cells (tail vein). Type of assay: in vivo, syngeneic C3H/HeN mice. On the procedure: C3 cells were serum starved, then cultured in presence of serum and GST or GST-HM for 48-hours and released from the substratum in Hanks. For assessing the tumorigenicity of the treated cells, 3×10^5 viable cells were injected subcutaneously into the right hind leg of syngeneic C3H/HeN Mice. The mice were maintained for 6-8 weeks after which tumors were removed, weighed and pieces processed for histology using conventional paraffin embedding techniques. […] The mice were maintained for 16-18 days, euthanased and their lungs were stained by Boulin solution (picric acid, formaldehyde and acetic acid [15:5.:1]), removed and metastatic foci were counted under dissecting microscope.

Assay [2] can be described thus: HA binding transblot assay with biotinylated HA. On the procedure: For the HA-binding assay, cell lysates were separated on SDS-PAGE, transblotted onto nitrocellulose membranes, then blots were incubated with biotinylated HA instead of primary antibody (Yang et al., 1993). Streptavidin-peroxidase conjugate (Sigma) was used as a second antibody, and blots were processed as above.

The test system of assay [3] is C3 cells. Nature of the assay: Cell cycle analysis by flow cytometry. To be noted: serum starved, then serum stimulated; 5 μg/ml GST-RHAMM. The assay is classed as cell-based, murine. On the procedure: For cell cycle analysis, cells of the ras-transformed fibroblast cell line C3 were harvested and fixed with 70% ethanol. The fixed cells were denatured by 2N HCl containing 0.5% Triton X-100 at RT for 30 min and then neutralized by treatment with 0.1 M Na2B4O7, pH 8.5. Total DNA content was detected by propidium iodide staining. The stained cells were analyzed by flow cytometry using a Coulter Electronics Inc. EPICS 753 cell sorter and PARA1 cell cycle analysis software.

In a further assay the test system is cdc2 mRNA. Kind of assay: cdc2 mRNA Northern blot, nuclear run-on and mRNA stability. Type of assay: cell-based, murine. To be noted: actinomycin D 20 μg/ml for stability. On the procedure:
Total cellular RNA was extracted by a rapid RNA isolation method using Trizol reagent (GIBCO) as per manufacturer's instructions. For half-life measurements, transcription was inhibited by addition of 20 ug/ml actinomycin D. RNA was isolated at different times and analyzed for cdc2 gene expression. 20 ug of total cellular RNA was electrophoresed through 1% formamide-agarose gels and blotted onto Nytran membranes. The blots were prehybridized and probed with random primer 32p-labelled murine cdc2 cDNA (Paul Nurse). Loading of RNA was determined by probing with glyceraldehyde-3-phosphate dehyrogenase (GAPDH) cDNA. Autoradiography was done by Phosphoimager SF (Molecular Dynamics) using storage phosphor imaging.
Nuclear run-on assay was performed using 32P-labelled RNA to probe filter-bound cdc2 and GAPDH single strand cDNA inserts. Quantification of transcription was determined by scanning phosphor images using Multiquant software program (Molecular Dynamics).

In assay [4] the test system is C3 cells. Nature of the assay: Tumorigenicity of treated C3 cells injected subcutaneously. Type of assay: in vivo, syngeneic C3H/HeN mice. On the procedure: C3 cells were serum starved, then cultured in presence of serum and GST or GST-HM for 48-hours and released from the substratum in Hanks. For assessing the tumorigenicity of the treated cells, 3×10^5 viable cells were injected subcutaneously into the right hind leg of syngeneic C3H/HeN Mice. The mice were maintained for 6-8 weeks after which tumors were removed, weighed and pieces processed for histology using conventional paraffin embedding techniques. For experimental metastasis assays, 4×10^3 treated cells were injected into the tail vein of syngeneic C3H/HeN mice. The mice were maintained for 16-18 days, euthanased and their lungs were stained by Boulin solution (picric acid, formaldehyde and acetic acid [15:5.:1]), removed and metastatic foci were counted under dissecting microscope.

Another assay has as its system C3 fibroblasts. Nature of the assay: Cell locomotion assay, timelapse image analysis of C3 fibroblasts. The assay is classed as cell-based, murine. On the procedure: For motility experiments, 10^5 cells were subcultured into 25 cm^2 tissue culture flasks (Corning), and maintained for 12 h as above. The medium was then aspirated, cells were rinsed with Hanks Balanced Salt Solution (HBSS) (Gibco) and fresh, serum-free α-MEM containing 4.0 μg/ml transferrin (Gibco) and 2.0 μg/ml insulin (Sigma) (defined medium) was added to the flasks.
Cell locomotion was recorded using a computerized timelapse analysis system (Image 1, Universal Imaging Corporation, Westchester, Pa.) that measures nuclear displacement. During the filming period, cells were maintained at 37° C. in defined-media at physiological pH.
A 10 amino acid peptide corresponding to one of the HA binding domains of RHAMM, peptide^aa423-432 (Yang et al., 1993), was synthesised and added at various concentrations (0,0.1, 1.0, 5.0, 10.0 and 50.0 ng/ml) to 70% confluent C3 fibroblasts. Cell locomotion was monitored by image analysis for 2 h from the addition of the peptide. A scrambled peptide was used as control.
RHAMM-GST fusion protein prepared and purified as described in (b) above was added at concentrations of 1 pg/ml, 1 ng/ml, 1 μg/ml and 1 mg/ml to 70% confluent C3 cultures and cell locomotion was monitored by image analysis for 2 h from protein addition as described in Example 5.
For each experiment, 30 cells were tracked every 10 min for a 1 hr period.
RHAMM-GST fusion protein, as described in (d) above, and deleted/mutated RHAMM-GST fusion protein, as described in (h) above were added at 5 ng/ml to subconfluent cultures of C3 cells and cell locomotion was monitored by image analysis for 2 h from protein addition as described in Example 5.

In another assay the test system is p34^cdc2. Kind of assay: Western blot of p34^cdc2 protein expression. The assay is classed as cell-based, murine. On the procedure: For Western blot analysis, C3 cells in 100 mm dishes were washed 2× in PBS and then lysed in 0.25 ml ice cold buffer containing 50 mM β-glycerophosphate (pH 7.3), 1% Nonidet p-40, 10 mM NaF, 1% aprotinin and 1 mM Sodium Vanadate. The lysates were centrifused at 30,000 g for 20 min at 4° C. Protein concentration was determined by Biorad protein assay kit. Proteins were resolved on 10% SDS-polyacrylamide gels and transferred to nitrocellulose membranes in a Tris-Cl buffer containing 25 mM Tris, 192 mM Glycine and 20% (v/v) methanol, pH 8.3 at 100V for 1 hour at 4° C. Filters were incubated with antibody to p34^cdc2 (1:5000 dilution of polyclonal rabbits antiserum raised against the C-terminal peptide (LDNQIKKM) (SEQ ID NO:58) of Human […] protein) and developed with horseradish peroxidase-conjugated goat antibody to rabbit immunoglobulin G (sigma). Blotting was visualized by enhanced chomilumineacence Western blotting system (Amersham) following manufacturer's instruction.

The test system of assay [5] is C3 cells. Kind of assay: Growth analysis (cell density assay). The assay is classed as cell-based, murine. On the procedure: Cell density assay was carried out by seeding 5×10^4 cells in 60 mm dishes. Cells were cultured in DMEM supplemented with 10% FCS. At each point, cells were harvested by trypsinization and cell concentrations were determined by counting cells by trypan blue exclusion method.

Setting [6] is: treated cells that did form tumours.

As for “RHAMM-GST fusion protein: RHAMM II cDNA cloned into pGEX-2T and expressed as soluble glutathione S-transferase-RHAMM fusion protein”, the “Expt. Metastases, Frequency” value in the assay on C3 cells [1] (i.v. injection of 4 × 10^5 treated cells) is given as 3/4. Moreover, the “Expt. Metastases, No.” value in the assay on C3 cells [1] (i.v. injection of 4 × 10^5 treated cells, lung foci) is <10. In addition, the “metastatic capability of C3 cells” value with C3 cells [1] (pre-treatment of cells) is reported as “greatly reduced the metastatic capability”. The “binding to biotinylated HA” value in assay [2] is listed as “showed binding to biotinylated HA”. In the assay on C3 cells [3], the “effect on cell cycle” value was “arrested and accumulated in G2/M phase”. The “effect on cdc2 mRNA” value with cdc2 mRNA is reported as “degradation of cdc2 mRNA without alteration of transcription”. In addition, in the assay with C3 cells [4] (C3 cells treated 48 hours before s.c. injection of 3 × 10^5 cells), the “Tumorigenicity, Frequency” value is recorded as 2/4. The “Tumorigenicity, Latency” value in the assay on C3 cells [4] (s.c. injection of 3 × 10^5 treated cells) was 22 days. Besides, the Tumorigenicity, Tumor size Day 25 in the assay on C3 cells [4] (s.c. injection of 3 × 10^5 treated cells, Day 25) stood at 90 ± 0.7 mm². Moreover, in the assay on C3 cells [4] (setting [6]), the “latency compared to controls” value was “increased” and the “ultimate tumour size compared to controls” value is recorded as “reduced”. Moreover, the “reduction of incidence of tumours” value in the assay with C3 cells [4] (treatment of C3 cells prior to inoculation) was found to be 50%. For the same substance, the “concentration at which cell locomotion was significantly inhibited” value with C3 fibroblasts (70% confluent C3, 2 h) is ≥ 1 ng/mL. Further, in the assay on C3 fibroblasts (C3 fibroblasts, result in words), the “effect on cell locomotion” value is “effective inhibitor of cell motility”. This substance also showed a reduction of locomotion in the assay on C3 fibroblasts (at 1 ng/ml, p<0.0001) of 40%. Moreover, the reduction in locomotion with C3 fibroblasts (concentrations as low as 1 ng/ml) is given as 3.5 fold. Moreover, in the assay on p34^cdc2 (10 μg/ml), the “p34^cdc2 expression” value was “greatly reduced”. Also, the “effect on p34^cdc2 expression” value with p34^cdc2 (range of concentrations) is “dose dependent inhibition”. Besides, in the assay with C3 cells [5] (5 μg/ml GST-RHAMM), the “effect on cell proliferation” value is listed as “decrease in cell proliferation”. In addition, in the assay with C3 cells [5] (RHAMM-treated C3 cells), the “fate of treated cells” value was “proceeded to cell death”.
